Results on one compound are retold here after patent US20070155803A1, “Protease inhibitors” (ProZymex A/S, priority 2003, published 2007).

Square brackets hold non-standard residues; d marks the D form. Peptide text beside a SMILES is read from it. Phe(3-F) = N[C@@H](Cc1cccc(F)c1)C(=O)O; hPhe = N[C@@H](CCc1ccccc1)C(=O)O; Abu = CC[C@H](N)C(=O)O; azaGly = NNC(=O)O

The target in experiment [1] is T1, Human liver cathepsin B (Homo sapiens, UniProt P07858).
T1 construct: Human liver cathepsin B (Enzyme System Products, CAT-B); purchased Enzyme System Products CAT-B; host or cells: human liver
Nature of the experiment: Human liver cathepsin B assay. Type of experiment: biochemical. The method, then:
Human Liver Cathepsin B Assay
Using this assay, the selectivity of a compound of the invention for hDPP-I over human cathepsin B was determined, using a fluorogenic substrate.
0.1 M MES buffer (1.95 g; M=195.2) and 1 mM EDTA (37 mg; M=372.2) were mixed in 100 mL H2O and pH adjusted to 6.1. DTT (10 μL, 0.5 M) was added for activation of the enzyme […].
Human liver cathepsin B (Enzyme System Products, CAT-B; stock 25 μg/54 μL=463 ng/μL). One aliquot was diluted to a concentration of 40 ng/μL by adding 53 μL assay buffer (without DTT). Just prior to experiment, two more dilution steps were performed: 4 ng/μL: 5 μL (40 ng/μL)+45 μL buffer (without DTT) 0.1 ng/μL: 5 μL (4 ng/μL)+[…] buffer (without DTT)
Boc-Leu-Arg-Arg-AFC.2TFA (Enzyme System Products AFC113). Stock solution made (20 mM; 15.1 mg dissolved in 1 ml DMSO). Diluted further in H2O to 10 mM. Km for this substrate has been determined to be 600 μM.
The assay was performed in 96-well plates. 84 μL assay buffer was added to the well followed by 10 μL 1% DMSO in assay buffer (control) or a compound, of the invention (10 μM in the assay). […] The excitation wavelength was 400 nm, and the emission was measured at 505 nm for 10-20 minutes at 37° C. […] In the software (SOFTmax Pro) used for data collection from the fluorometer (Molecular Devices: Gemini XS), it was ensured that the measured slopes were linear (R^2>0.99). […]

The target in experiment [2] is T2, Human neutrophil elastase (Homo sapiens, UniProt P08246).
T2 construct: purchased Calbiochem 324681
T2 sequence (P08246 30-267): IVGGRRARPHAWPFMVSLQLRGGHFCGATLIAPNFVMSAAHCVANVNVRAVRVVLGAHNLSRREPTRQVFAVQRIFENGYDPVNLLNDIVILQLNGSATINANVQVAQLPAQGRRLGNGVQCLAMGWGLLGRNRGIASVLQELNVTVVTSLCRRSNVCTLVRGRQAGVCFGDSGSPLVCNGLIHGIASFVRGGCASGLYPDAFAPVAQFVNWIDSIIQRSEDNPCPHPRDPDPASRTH
Description: Human neutrophil elastase assay. Format: biochemical. The procedure: Human Neutrophil Elastase Assay
Using this assay, the selectivity of a compound of the invention for hDPP-I over human neutrophil elastase was determined, using a fluorogenic substrate.
Buffer containing 100 mM Tris/HCl pH 7.5 (25° C.), and 500 mM NaCl.
Human neutrophil elastase (Calbiochem Cat # 324681, 50 ng/µL stock) was reconstituted in 50 mM sodium acetate pH 5.5 and 200 mM NaCl, then stored at −20° C. Diluted to 1 ng/μL in buffer just prior to experiment.
MeOSuc-Ala-Ala-Pro-Val-AMC (Calbiochem Cat # 324740) was dissolved in buffer to 4 mM (398 μL/mg) just prior to experiment. Km was determined to be 560 μM.
The assay was performed in 96-well plates. 80 μL assay buffer was added to the well followed by 10 μL enzyme (1 ng/μL). Incubated for 10 min. at 37° C., then 10 μL substrate was added, and subsequently a compound of the invention (10 μM in the assay) The excitation wavelength was 380 nm, and the emission was measured at 460 nm for 10-20 minutes at 37° C. Each measurement was made in duplicate. In the software (SOFTmax Pro) used for data,collection from the fluorometer (Molecular Devices: Gemini XS), it was ensured that the measured slopes were linear (R^2>0.99). Data was exported to GraphPad Prism and nonlinear regression was performed using the option sigmoidal dose-response (variable slope).

For experiment [3], the target named is T3, CYP3A4 (Homo sapiens, UniProt P08684).
T3 construct: purchased PanVera Vivid CYP3A4 Red Screening Kit
T3 sequence (P08684 whole entry): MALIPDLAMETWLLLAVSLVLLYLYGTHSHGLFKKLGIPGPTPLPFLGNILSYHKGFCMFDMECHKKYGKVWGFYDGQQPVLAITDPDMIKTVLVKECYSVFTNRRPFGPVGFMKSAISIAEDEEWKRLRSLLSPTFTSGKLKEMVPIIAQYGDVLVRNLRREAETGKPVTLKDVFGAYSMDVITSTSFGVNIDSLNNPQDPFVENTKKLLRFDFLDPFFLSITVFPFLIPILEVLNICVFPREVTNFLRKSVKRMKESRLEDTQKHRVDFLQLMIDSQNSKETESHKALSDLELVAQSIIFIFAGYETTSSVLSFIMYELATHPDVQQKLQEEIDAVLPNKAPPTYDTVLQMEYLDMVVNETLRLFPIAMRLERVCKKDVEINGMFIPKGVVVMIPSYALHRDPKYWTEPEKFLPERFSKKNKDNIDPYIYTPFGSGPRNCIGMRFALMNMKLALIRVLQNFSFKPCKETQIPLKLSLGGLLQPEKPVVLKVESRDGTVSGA
Nature of the experiment: CYP3A4 assay (Vivid CYP3A4 Red Screening Kit). Type of experiment: in vitro ADME. The conditions noted are these: read-out: Metabolism: CYP enzymes (20 μM cutoff or IC50) CYP3A4. The method, then: Tubes thawed on ice. 2× reaction buffer dispensed (room temperature) in two eppendorf tubes (for Mix A and Mix B).
Controls or compounds of the invention: Diluted to a concentration of 50 μM. Positive control compound: α-naphthoflavone.
Negative controls: DMSO and H2O.
Mix A: 485 μL reaction buffer, 10 μL regeneration system, 5 μL Baculosome reagent. Mixed gently and placed on ice.
Mix B: 88.5 μL reaction buffer, 1.5 μL substrate, 10 μL 10 mM NADP^+.
In a 96-well plate (Costar c-3904), 40 μL of 50 μM sample dispensed. 50 μl Mix A added. Incubated 20 min. at rt. Then, 10 μl of Mix B added. Fluorescence determined (Molecular Devices, SPECTRAmax Gemini EM): Ex: 409 nm, Em: 460 nm, at 37° C. for 20 min. (Automix: 5 s, top read.).
Following the procedure for CYP1A2, using the appropriate kits below, the effect of a compound of the invention on the other CYP enzymes was determined:
Vivid® CYP3A4 Red Screening Kit from PanVera.

Experiment [4] relates to β-tryptase. Nature of the experiment: Tryptase assay. Type of experiment: biochemical, human. The method, then: Using this assay, the selectivity of a compound of the invention for hDPP-I over β-tryptase was determined, using a fluorogenic substrate.
0.1 M HEPES buffer (pH 7.5) with 0.5 M NaCl.
Rh-Skin β-tryptase (Promega # G7061) was diluted to a final stock solution of 0.08 μg/μL in assay buffer.
Rh-lung β-tryptase (Promega # G5631) was diluted to a final stock solution of 0.08 μg/μL in assay buffer.
Z-ARG-AMC*HCl (BACHEM I1130; 10 mg) was dissolved in 1 mL DMSO, giving a 20 mM solution. Km was determined to be >400 μM.
The assay was performed in 96-well plates. 85 μl assay buffer was added to the well followed by 5 μL enzyme stock. Then 5 μL substrate was added, and subsequently 5 μL 4% DMSO in assay buffer (control) or a compound of the invention (10 μM in the assay) The excitation wavelength was 380 nm, and the emission was measured at 460 nm for 10-20 minutes at […] Each measurement was mad in duplicate. In the software (SOFTmax Pro) used for data collection from the fluorometer (Molecular Devices: Gemini XS), it was ensured that the measured slopes were linear (R^2>0.99).
Data were exported to GraphPad Prism and nonlinear regression was performed using the option Sigmoidal dose-response (variable slope).

Turning to `CC[C@H](N)C(=O)NNC(=O)N[C@@H](CCc1ccccc1)C(=O)N[C@@H](Cc1cccc(F)c1)C(N)=O` [Example 11, 1-(2S-2-Aminobutanoyl)-4-[2S-N-[2S-3-(m-fluorophenyl)propan-2-yl-amide]-4-phenylbutan-2-yl-amide]semicarbazide] (H-[Abu][azaGly][hPhe][Phe(3-F)]-NH2), the “Inhibition of Cathepsin B (in words)” value in experiment [1] is on record as “does not inhibit”. Also, the half-inhibitory concentration (IC50) (as a rule, the midpoint of a concentration-inhibition curve) in experiment [1] (human liver cathepsin B, read-out: Secondary enzymatic screening (10 μM cutoff or IC50) Cathepsin B) was 4.5 µM; in experiment [2] (human neutrophil elastase, 10 μM cutoff, read-out: Secondary enzymatic screening (10 μM cutoff or IC50) Neutrophil elastase) it was more than 10 µM; in experiment [3], 0.6 µM; in experiment [4] (β-tryptase, 10 μM cutoff, read-out: Secondary enzymatic screening (10 μM cutoff or IC50) Tryptase), more than 10 µM. Also, the “Inhibition of neutrophil elastase (in words)” value in experiment [2] was “does not inhibit”. Further, the “Inhibition of tryptase (in words)” value in experiment [4] is “does not inhibit”.
